Here are results for 1 molecule from patent US20040018235A1, “Controlled release pharmaceutical composition” (KOWA CO., LTD, priority 2002, published 2004).

The data set is described as follows: Absorption sites of pitavastatin in rat (in situ loop test). Format: in vivo.

For `O=C(O)C[C@H](O)C[C@H](O)/C=C/c1c(C2CC2)nc2ccccc2c1-c1ccc(F)cc1` [pitavastatin, (+)-(3R,5S,6E)-7-[2-cyclopropyl-4-(4-fluorophenyl)-3-quinolyl]-3,5-dihydroxy-6-heptenoic acid], the Absorption percentage (duodenum, 0.5 h) was found to be 65.9 ± 2.1%; the Absorption percentage (duodenum, 1 h) was 60.3 ± 10.2%; the Absorption percentage (large intestine, 0.5 h) is reported as 34.4 ± 3.7%; the Absorption percentage (large intestine, 1 h) was 51.6 ± 6.7%; the Absorption percentage (small intestine, 0.5 h) amounted to 23.1 ± 3.8%; the Absorption percentage (small intestine, 1 h) came out at 21.3 ± 3.0%. The Absorption percentage by setting is: (stomach, 0.5 h) 8.6 ± 1.1%; (stomach, 1 h) 14.4 ± 1.6%. The “Percentage of absorption in the small intestine relative to that in the duodenum” value (see Table 1) is “about one-third”.
